Laboratory results reported in article PMC8733726, “Dioctanoyl Ultrashort Tetrabasic β-Peptides Sensitize Multidrug-Resistant Gram-Negative Bacteria to Novobiocin and Rifampicin” (Frontiers in Microbiology, 2021).
Converted amounts (≈) assume the structure as drawn. Read-outs that look alike come from different tables or passages of the source.

Columns and labels:
[1] = system: P. aeruginosa PAO1; type: cell-based, Pseudomonas aeruginosa; conditions: PAO1, 18 h
Experimental: (§1) The in vitro antibacterial activities of dUSTBβPs were evaluated using microbroth dilution susceptibility test, in accordance with the Clinical and Laboratory Standards Institute (CLSI) guidelines ([Clinical and Laboratory Standards Institute, 2019]). Overnight-grown bacterial culture diluted in saline to 0.5 McFarland turbidity was successively diluted 1:50 in Mueller-Hinton broth (MHB) to achieve a final concentration of 5 × 10^5 colony forming units (CFU)/mL for inoculation. The agents were serially diluted 2-fold in MHB on a 96-well plate; mixed with bacterial inoculum of equal volumes, and incubated at 37°C for 18 h. Antibacterial activity was determined by the minimum inhibitory concentration (MIC), which is the lowest concentration of agent required for inhibition of visible bacterial growth in the form of turbidity. Confirmation of turbidity was done using an EMax Plus microplate reader (Molecular Devices, United States) at a wavelength of 590 nm. Wells comprising MHB alone or MHB inoculated with bacteria were used as negative or positive controls, respectively.

[2] = system: A. baumannii ATCC 17978; type: cell-based, Acinetobacter baumannii; conditions: ATCC 17978, 18 h
Experimental: as §1

[3] = system: E. coli ATCC 25922; type: cell-based, Escherichia coli; conditions: ATCC 25922, 18 h
Experimental: as §1

[4] = in vitro; type: cell-based; conditions: human
Experimental: The degree of hemolysis induced by dUSTBβPs was determined by the amount of hemoglobin released from human erythrocytes upon incubation. Fresh human blood supplied by a commercial vendor was obtained from normal healthy volunteers following informed consent. The agent of interest was serially diluted in vehicle consisting of phosphate-buffered saline (PBS), saline, 5% glucose, or equivalents. The samples were incubated with gentle mixing at 37°C for 45 min and were subsequently centrifuged. The supernatant (plasma layer) was removed and centrifuged once more to completely pellet the cells. The plasma layer was diluted with Drabkin’s reagent and analyzed at a wavelength of 540 nm. Experiments were conducted in triplicates, and a calibration curve prepared by diluting blood (after addition of vehicle) was used to quantitate heme release. The vehicle or Triton X-100 were used as negative or positive controls, respectively.

[5] = system: MDR clinical isolates of A. baumannii; type: cell-based, Acinetobacter baumannii; conditions: MDR clinical isolates of, 18 h
Experimental: (§2) The adjuvant activities of dUSTBβPs were evaluated using checkerboard assay as previously described ([Berry et al., 2019]). Overnight-grown bacterial culture diluted in saline to 0.5 McFarland turbidity was successively diluted 1:50 in MHB to achieve a final concentration of 5 × 10^5 CFU/mL for inoculation. The antibiotic and adjuvant were serially diluted 2-fold along the x-axis and y-axis, respectively, resulting in varying concentrations of both agents in each well. Subsequently, the 96-well plate was incubated with equal volumes of bacterial inoculum at 37°C for 18 h. Confirmation of turbidity was done using an EMax Plus microplate reader (Molecular Devices, United States) at a wavelength of 590 nm. Wells comprising MHB alone or in the presence of bacterial cells were used as negative or positive controls, respectively. Fractional inhibitory concentration index (FICI) is determined by adding the FICs of both antibiotic and adjuvant. The FIC of the antibiotic is calculated by dividing the MIC of the antibiotic in the presence of the adjuvant by the MIC of the antibiotic alone. Similarly, the FIC of the adjuvant is calculated by dividing the MIC of the adjuvant in the presence of the antibiotic by the MIC of the adjuvant alone. FICI ≤ 0.5, 0.5 < x ≤ 4, and >4 were deemed synergistic, additive, and antagonistic, respectively ([Meletiadis et al., 2010]).

[6] = in vitro; conditions: human, plasma
Experimental: Stability of dUSTBβP 3 was evaluated in human plasma. […] The supernatant was analyzed by HPLC-tandem mass spectrometry using selected reaction monitoring. The % compound remaining was determined by comparing peak areas at different time points to time zero. Assuming first-order kinetics, the half-life was extrapolated from the slope of the initial linear range of the logarithmic curve of compound remaining over time. Experiments were performed in duplicates, and the reference compounds include propantheline and propoxycaine.

[7] = system: wild-type A. baumannii ATCC 17978; experiment: Checkerboard assay; type: cell-based, Acinetobacter baumannii; conditions: ATCC 17978; for MICcombo: antibiotic with dUSTBβP 3 at 8 μg/mL; for MIC: Acinetobacter baumannii, ATCC17978, 18 h, antibiotic alone (Supplementary Table 7), read-out: MICantibiotic
Source text: as §2, with “Overnight-grown” for “The adjuvant activities of dUSTBβPs were evaluated using checkerboard assay as previously described ([Berry et al., 2019]). Overnight-grown”, “Subsequently, the 96-well plate was incubated with equal volumes of bacterial inoculum at 37°C for 18 h.” left out, “alone.” for “alone. FICI ≤ 0.5, 0.5 < x ≤ 4, and >4 were deemed synergistic, additive, and antagonistic, respectively ([Meletiadis et al., 2010]).”

[8] = system: MDR A. baumannii clinical isolates; experiment: Resistance phenotype (MICs of antibiotics) of MDR clinical isolates; type: cell-based, Acinetobacter baumannii; conditions: Acinetobacter baumannii, read-out: MIC
[9] = system: MDR P. aeruginosa clinical isolates; experiment: as above; type: cell-based, Pseudomonas aeruginosa; conditions: Pseudomonas aeruginosa
[10] = system: wild-type P. aeruginosa PAO1; experiment: microbe, parasite or virus in culture; type: cell-based, Pseudomonas aeruginosa; conditions: PAO1; for MICcombo: antibiotic with dUSTBβP 3 at 8 μg/mL; for MIC: Pseudomonas aeruginosa, 18 h, antibiotic alone (Supplementary Table 7), read-out: MICantibiotic
Source text: as §2, with “Overnight-grown” for “The adjuvant activities of dUSTBβPs were evaluated using checkerboard assay as previously described ([Berry et al., 2019]). Overnight-grown”, “Subsequently, the 96-well plate was incubated with equal volumes of bacterial inoculum at 37°C for 18 h.” left out, “alone.” for “alone. FICI ≤ 0.5, 0.5 < x ≤ 4, and >4 were deemed synergistic, additive, and antagonistic, respectively ([Meletiadis et al., 2010]).”

[11] = system: MDR E. cloacae clinical isolates; experiment: Resistance phenotype (MICs of antibiotics) of MDR clinical isolates; type: cell-based, Enterobacter cloacae; conditions: Enterobacter cloacae, read-out: MIC
[12] = system: MDR K. pneumoniae clinical isolates; experiment: as above; type: cell-based, Klebsiella pneumoniae; conditions: Klebsiella pneumoniae, read-out: MIC
[13] = system: wild-type E. coli ATCC 25922; experiment: microbe, parasite or virus in culture; type: cell-based, Escherichia coli; conditions: ATCC 25922; for MICcombo: antibiotic with dUSTBβP 3 at 8 μg/mL; for MIC: Escherichia coli, ATCC25922, 18 h, antibiotic alone (Supplementary Table 7), read-out: MICantibiotic
Experimental: as §2

[14] = system: MDR E. coli clinical isolates; experiment: Resistance phenotype (MICs of antibiotics) of MDR clinical isolates; type: cell-based, Escherichia coli; conditions: Escherichia coli, read-out: MIC

For `CCCCCCCC(=O)NC(CCCCN)CC(=O)NCCCN(CCCNC(=O)CC(CCCCN)NC(=O)CCCCCCC)CC(=O)NC(CCCCN)CC(N)=O` (stereo not drawn) [dUSTBβP 2], the MIC [1] was >128 µg/mL, the MIC [2] was >128 µg/mL and the MIC [3] was >128 µg/mL. The hemolysis at 45 min, 1.5625 µM [4] was 3.33 ± 0.12%, the hemolysis at 45 min, 3.125 µM [4] was 3.28 ± 0.21% and the hemolysis at 45 min, 6.25 µM [4] was 3.23 ± 0.11%. For the same molecule, the hemolysis at 45 min, 12.5 µM [4] was 3.22 ± 0.2%, the hemolysis at 45 min, 25 µM [4] was 3.29 ± 0.14% and the hemolysis at 45 min, 50 µM [4] was 3.24 ± 0.15%. The hemolysis at 45 min, 100 µM [4] was 3.26 ± 0.1% and the hemolysis at 45 min, 200 µM [4] was 3.21 ± 0.13%.

With `CCCCCCCC(=O)NC(CCCN)CC(=O)NCCCN(CCCNC(=O)CC(CCCN)NC(=O)CCCCCCC)CC(=O)NC(CCCN)CC(N)=O` (stereo not drawn) [dUSTBβP 1] the MIC [1] was >128 µg/mL, the MIC [2] was >128 µg/mL and the MIC [3] was >128 µg/mL. It also gave a hemolysis at 45 min, 1.5625 µM [4] of 3.11 ± 0.07%, a hemolysis at 45 min, 3.125 µM [4] of 3.12 ± 0.09% and a hemolysis at 45 min, 6.25 µM [4] of 3.13%. The hemolysis at 45 min, 12.5 µM [4] was 3.16 ± 0.04%, the hemolysis at 45 min, 25 µM [4] was 3.12 ± 0.05% and the hemolysis at 45 min, 50 µM [4] was 3.17 ± 0.06%. It also gave a hemolysis at 45 min, 100 µM [4] of 3.35 ± 0.17% and a hemolysis at 45 min, 200 µM [4] of 2.26 ± 0.19%.

With `CCCCCCCC(=O)N[C@@H](CCCNC(=N)N)C(=O)NCCCN(CCCNC(=O)[C@H](CCCNC(=N)N)NC(=O)CCCCCCC)CC(=O)N[C@@H](CCCNC(=N)N)C(N)=O` [di(C8-Arg)-Nbap-Arg-NH2] the “MIC of compound alone” value [5] was 16 µg/mL and the remaining at 2 h, 1 μM [6] was 39.5 ± 7.4%.

In the case of `CC(C)(O/N=C(\C(=O)N[C@@H]1C(=O)N2C(C(=O)[O-])=C(C[n+]3ccccc3)CS[C@H]12)c1csc(N)n1)C(=O)O` [Ceftazidime], the MICcombo [7] is reported as 8 µg/mL, the MIC [7] is reported as 16 µg/mL and the MIC ([8]; LAC-4) is reported as > 16 µg/mL. For the same molecule, the MIC ([9]; 259-96196) was 512 µg/mL (≈ 937 µM), the MIC ([9]; 262-101856, read-out: MIC) was 16 µg/mL (≈ 29.3 µM) and the MIC ([9]; 264-104354) was 128 µg/mL (≈ 234 µM). It also gave an MIC [9]; 91433 of 1020 µg/mL (≈ 1870 µM), an MIC ([9]; 114228, read-out: MIC) of 8 µg/mL (≈ 14.6 µM) and an MICcombo [10] of 2 µg/mL. The MIC [10] was 2 µg/mL (≈ 3.66 µM), the MIC [11]; 117029 was 0.5 µg/mL (≈ 0.915 µM) and the MIC [11]; 118564 was 0.5 µg/mL (≈ 0.915 µM). For the same molecule, the MIC [11]; 121187 was 0.5 µg/mL (≈ 0.915 µM), the MIC [12]; 113250 was 0.5 µg/mL (≈ 0.915 µM) and the MIC [12]; 113254 was ≤ 0.2 µg/mL. For the same molecule, the MIC [12]; 116381 was 8 µg/mL (≈ 14.6 µM), the MICcombo [13] was 0.063 µg/mL and the MIC [13] was 0.25 µg/mL. For the same molecule, the MIC ([14]; 94393 (mcr-1 +)) was ≤ 0.25 µg/mL, the MIC ([14]; 94474 (mcr-1 +)) was 0.5 µg/mL (≈ 0.915 µM) and the MIC [14]; 107115 was > 32 µg/mL.

`O=C(N[C@H](CO)[C@H](O)c1ccc([N+](=O)[O-])cc1)C(Cl)Cl` [Chloramphenicol] showed an MICcombo [7] of 64 µg/mL, an MIC [7] of 128 µg/mL and an MIC [8]; 110193 of 128 µg/mL (≈ 396 µM). For the same molecule, the MIC ([8]; AB027) was 128 µg/mL (≈ 396 µM), the MIC ([8]; AB031) was 128 µg/mL (≈ 396 µM) and the MIC ([8]; LAC-4) was 32 µg/mL (≈ 99 µM). It also gave an MIC ([9]; 259-96196) of 1020 µg/mL (≈ 3170 µM), an MIC ([9]; 262-101856, read-out: MIC) of 2050 µg/mL (≈ 6340 µM) and an MIC ([9]; 264-104354, read-out: MIC) of 4100 µg/mL (≈ 12700 µM). The MIC ([9]; 91433, read-out: MIC) was 8 µg/mL (≈ 24.8 µM), the MICcombo [10] was 2 µg/mL and the MIC [10] was 32 µg/mL (≈ 99 µM). For the same molecule, the MIC [11]; 117029 was 8 µg/mL (≈ 24.8 µM), the MIC [12]; 113250 was 4 µg/mL (≈ 12.4 µM) and the MIC [12]; 113254 was 2 µg/mL (≈ 6.19 µM). The MIC [12]; 116381 was > 512 µg/mL, the MICcombo [13] was 1 µg/mL and the MIC [13] was 2 µg/mL. It also gave an MIC ([14]; 94393 (mcr-1 +)) of 4 µg/mL (≈ 12.4 µM), an MIC ([14]; 94474 (mcr-1 +)) of 4 µg/mL (≈ 12.4 µM) and an MIC [14]; 107115 of 512 µg/mL (≈ 1580 µM).
